Measurements reported in patent publication US20060122267A1, “Compositions and methods for attenuating mitochondria-mediated cell injury” (priority 2003, published 2006).

Legend:
mitochondrial complex I [1] = molecular target: T1, mitochondrial complex I (Rattus norvegicus, UniProt Q66HF1); test: Complex I S-nitrosation: blue-native gel isolation followed by chemiluminescent S-nitrosothiol analysis; format: biochemical; settings: 100 μM treatment
T1 construct: Rat heart mitochondria were isolated using differential centrifugation; from tissue; host or cells: rat heart mitochondria (male Sprague-Dawley rats)
T1 sequence (Q66HF1 24-727, one chain of several): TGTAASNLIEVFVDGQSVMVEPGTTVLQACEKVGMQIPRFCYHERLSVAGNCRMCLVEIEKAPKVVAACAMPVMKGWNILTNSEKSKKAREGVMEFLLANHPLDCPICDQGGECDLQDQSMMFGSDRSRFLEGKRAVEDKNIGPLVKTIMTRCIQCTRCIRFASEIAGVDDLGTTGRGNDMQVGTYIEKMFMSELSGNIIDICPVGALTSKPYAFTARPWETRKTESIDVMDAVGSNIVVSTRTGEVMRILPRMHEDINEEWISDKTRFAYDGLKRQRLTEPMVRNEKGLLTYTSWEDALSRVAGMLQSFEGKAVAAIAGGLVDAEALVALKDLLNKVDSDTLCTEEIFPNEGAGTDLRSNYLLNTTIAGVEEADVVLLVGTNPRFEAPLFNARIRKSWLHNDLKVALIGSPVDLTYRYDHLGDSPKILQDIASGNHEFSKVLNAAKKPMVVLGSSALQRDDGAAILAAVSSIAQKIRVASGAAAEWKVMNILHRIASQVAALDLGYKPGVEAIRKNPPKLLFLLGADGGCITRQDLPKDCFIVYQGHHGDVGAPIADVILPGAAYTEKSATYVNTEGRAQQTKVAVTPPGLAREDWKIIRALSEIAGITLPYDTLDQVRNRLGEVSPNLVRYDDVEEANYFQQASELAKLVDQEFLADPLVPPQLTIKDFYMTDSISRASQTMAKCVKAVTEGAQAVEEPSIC
Excerpt: Efforts to detect S-nitrosation within mitochondrial complex I itself relied on isolating the complex using a modified blue-native gel electrophoresis method, followed by chemiluminescent S-nitrosothiol analysis. […] Chemiluminescent analysis of excised gel bands gave an S-nitrosothiol profile of the gel, with four major peaks. The first of these was in a gel segment enriched in complex I.
Assuming heart mitochondria contain ˜50 pmol complex I per mg protein (Schagger & Pfeiffer (2001) J. Biol. Chem. 276:37861-37867), it was observed that S-nitrosation plateaud at a ˜7:1 mol/mol ratio (i.e., 7 mols S-nitrosothiol per mol complex I), while maximum complex I inhibition was ˜20-25%. This apparent mis-match between the stoichiometry of S-nitrosation (7:1) and the degree of inhibition (25%) may reflect S-nitrosation of complex I on multiple subunits. […]
Chemiluminescent analysis of S-nitrosothiol content was performed on samples originating from blue-native gels, intact mitochondria and SUPEROSE™ 6 chromatography fractions, according to known methodologies (Yang, et al. (2003) Free Radic. Res. 37:1-10). […] Each sample was run in duplicate and quantified using a standard curve created with known concentrations of NaNO2.

mitochondrial complex I [2] = molecular target: T1, mitochondrial complex I; test: Complex I activity (rotenone-sensitive NADH/Co-Q1 oxidation/reduction) in NO donor-treated mitochondria; format: biochemical
Protocol: Rat heart mitochondria were isolated using differential centrifugation (Tompkins, et al. (2005) Biochim. Biophys. Acta PMID: 16278076). Protein was determined by the Folin-phenol method (Lowry, et al. (1951) J. Bio. Chem. 193:265-75) against a standard curve constructed using bovine serum albumin. Mitochondrial incubations and all subsequent steps were performed in the dark. One mg of mitochondrial protein was suspended in 1 mL of mitochondrial respiration buffer (Tompkins, et al. (2005) supra) containing respiratory substrates glutamate (5 mM), malate (2.5 mM) and succinate (5 mM). […] Samples were centrifuged (5 minutes, 14,000×g), and supernatants removed. The pellets were then resuspended in 1 mL of respiration buffer, and centrifuged again. Pellets were frozen in liquid N2 for subsequent analysis. For ONOO^− treatments, 4 μL of 25 mM ONOO^− stock (100 μM final concentration) was added the cap of the reaction tube, the cap quickly closed and the tube shaken immediately. The process was then repeated twice at 30 second intervals, for a total of 3 additions. Mitochondria were then pelleted, washed, and frozen as for S-nitrosoglutathione samples. Complex I activity was assayed as the rotenone-sensitive oxidation of NADH, at 340 nm in the presence of coenzyme Q1 (Borutaite, et al. (2000) supra). […]

[3] = test system: isolated adult rat cardiomyocytes; test: Cardiomyocyte model of ischemia-reperfusion injury, cell viability by Trypan blue exclusion; format: cell-based; settings: for protection of cardiomyocyte viability from ischemia-reperfusion injury: 1 hour ischemia, 30 minutes reoxygenation
Protocol: Isolated adult rat cardiomyocytes were subjected to 1 hour ischemia (anoxic, glucose free medium, pH 6.5) followed by 30 minutes reoxygenation (labeled “HR”). Cell viability was assayed by Trypan blue exclusion. […] All data are means±SEM, N>3.
Adult rat cardiomyocytes were prepared by collagenase perfusion according to standard methods (Dai, et al. (2001) supra), yielding ˜4×10^6 cells per heart, >80% rod-shaped and viable. Incubations were in a shaking water bath at 37° C., each utilizing 5×10^5 cells in 5 mL of the KH buffers described below. For the control, cells were incubated for 2 hours in oxygenated KH buffer (95/5 O2/CO2). For ischemia-reperfusion treatment, cells were subjected to 30 minutes in oxygenated KH buffer, 1 hour in “ischemic” KH buffer (95/5 N2/CO2, pH 6.5, no glucose), and 30 minutes in oxygenated KH buffer. For the ischemia-reperfusion injury and test compound group of cells, ischemia-reperfusion injury was carried out as described above with test compound present during the 30 minute equilibration prior to ischemia-reperfusion and absent during ischemia. […] At the end of each protocol, cell viability was assayed (Trypan blue), and mitochondrial function determined (measurement of ΔΨm with the fluorescent probe TMRE, respiration with an O2 electrode, and S-nitrosothiol content by chemiluminescence and biotin-switch.

N[C@@H](CCC(=O)N[C@@H](CSN=O)C(=O)NCC(=O)O)C(=O)O [S-nitrosoglutathione]
share of total S-nitrosothiol originating from complex I (mitochondrial complex I [1]): ~20% | S-nitrosothiol originating from complex I (mitochondrial complex I [1]; per mg mitochondrial protein): 350 pmols | complex I inhibition (mitochondrial complex I [2]; S-nitrosoglutathione treatment of mitochondria, exposure to light): complex I inhibition that was reversible by exposure of mitochondria to light | maximum complex I inhibition (mitochondrial complex I [2]; dose response 10-500 μM): 20-25% | concentration required to achieve levels of protection comparable to 10-20 μM S-nitroso-2-mercaptopropylglycine [3]: 100 μM | protection of cardiomyocyte viability from ischemia-reperfusion injury ([3]; 10 μM): no protection | protection of cardiomyocyte viability from ischemia-reperfusion injury ([3]; 100 μM): significant protection
